Data published in patent US20250057951A1, “DISCERNIBLE CELL SURFACE PROTEIN VARIANTS OF CD117 FOR USE IN CELL THERAPY” (UNIVERSITÄT BASEL, priority 2021, published 2025).

Columns and labels:
[1] = test system: CD117; assay: Gene editing of CD117 in TF-1 cells, loss of SR-1 binding by FACS; type: cell-based, human; details: FACS 7 days after electroporation with Cas9, crRNA/tracrRNA or sgRNA and HDR template
Method: Gene editing of CD117 was performed in TF-1 cells using HDR. 12 different crRNAs were tested, six of them targeting amino acid residue E73 (Table 3), and six of them targeting amino acid residues 120-123 (Table 3).
Binding of antibody SR-1 to TF-1 cells was measured by FACS 7 days after electroporation with Cas9 protein, crRNA/tracrRNA or sgRNA and HDR template (Table 4).

[2] = test system: antibody Refmab #1; assay: Octet screen: binding of CD117 D1-2-3 variants to captured Refmab #1; details: nm shift at end of association, top analyte concentration (500 nM)
Method: A more sophisticated analysis of binding to the elected variants was performed with antibody Refmab #1. Binding of Refmab #1 to wt and variants (analyte) was measured in an Octet system RED96e or R8 at 25° C. with shaking at 1,000 rpm using 1× kinetic buffer (Sartorius, PN: 18-1105). First, the elected variants were screened for their ability to bind Refmab #1 using three different concentrations of analytes. Antibody Refmab #1 was captured by Anti-Human Fc capture biosensor (AHC) (Sartorius, PN: 18-5060) for 300 s at 0.5 to 1 μg/mL. As an analyte, human CD117 wt and variants, containing only domains 1, 2 and 3 (CD117 D1-2-3), was titrated at 500 nM, 50 nM and 5 nM. Association and dissociation of the analyte to Refmab #1 was monitored for 300 s and 900 s, respectively. Reference subtraction was performed against buffer only wells. AHC tips were regenerated using 10 mM Gly-HCl pH 1.7. Data were analyzed using the Octet Data Analysis software HT 12.0. Data were fitted (when possible) to a 1:1 binding model. Kinetic rates ka and […] globally fitted. Binding level of the elected variants were compared to wild type and are shown as percent in FIG. 7. For this qualitative analysis, the binding level of the top analyte concentration at end of the association step was used.

[3] = biological target: antibody Refmab #1; assay: Octet titration, steady state KD of CD117 D1-2-3 variants to Refmab #1; type: binding; details: for Kd: 7 concentrations 2000-5 nM, steady state, two individual experiments; for change of KD compared to wild type CD117: KD variant vs wild type; for binding of Refmab #1 at 2000 nM variant: nm shift higher than 0.1 nm counts as binding
Method: To further characterize binding of Refmab #1 to CD117 D1-2-3 variants E73K, E73L, E73R, E73Y, D121H, D121K, S123K and S123F, the analytes were titrated at 7 different concentrations (from 2000 nM to 5 nM). Antibody Refmab #1 was captured by AHC biosensors for 300 s at 0.5 to 1 μg/mL. Association and dissociation to Refmab #1 was extended to 600 s and 1000 s, respectively. Steady state analysis was performed.

[4] = test system: TF-1 cells; assay: SCF-dependent proliferation, SCF titration on TF-1 cells with CD117 variants (CellTiter-Glo); type: cell-based, human
Method: In another experiment, SCF-dependent proliferation of variants E73K, E73Y, D121K, S123F and S123K was compared against wildtype CD117. TF-1 cells were seeded at a cell concentration of 150 000 cells/ml in sterile, white cell culture treated plates with transparent bottom in RPMI+GlutaMax+10% FCS. Cells were treated with a titration of SCF. After 3 days of incubation a CellTiter-Glo 2.0 assay (Promega) was performed, luminescence was read in a luminometer (Envision plate reader) and EC50's was determined. Two different experiments with triplicates in each experiment were performed.

[5] = biological target: T1, Biotinylated Avitag-hSCF (human, UniProt P21583 26-190, limits assumed, biotinylated Avitag); assay: BLI (Octet), steady state: biotinylated SCF on streptavidin biosensor, CD117 D1-2-3 variant as analyte; KD relative to WT
T1 construct: Bought reagent; also called hSCF (Acros Biosystems SCF-H82E1)
Method: Domains 4 and 5 were used as a negative, non-binding control.
Association was monitored for 300 s and dissociation for 600 s. […] Reference subtraction was performed against buffer only wells. Biosensors were not regenerated and a new set of SA biosensors was used for each analyte. Data were analyzed using the Octet Data Analysis software HT 12.0. Steady state data analysis was performed due to the fast on/off nature of the interaction.

[6] = titration of SCF, 3 days, TF-1 cells with the CD117 variant

T1 sequence (P21583 26-190 limits assumed): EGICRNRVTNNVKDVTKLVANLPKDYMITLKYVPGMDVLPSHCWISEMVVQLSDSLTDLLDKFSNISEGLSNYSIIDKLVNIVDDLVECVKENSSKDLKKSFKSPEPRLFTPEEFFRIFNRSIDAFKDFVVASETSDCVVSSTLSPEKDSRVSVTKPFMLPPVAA
Sequence of antibody Refmab #1 (as listed by the source): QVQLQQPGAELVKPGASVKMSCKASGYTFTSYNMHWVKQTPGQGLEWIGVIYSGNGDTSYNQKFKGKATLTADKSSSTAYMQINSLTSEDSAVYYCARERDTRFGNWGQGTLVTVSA
Sequence of antibody Refmab #1 (as listed by the source): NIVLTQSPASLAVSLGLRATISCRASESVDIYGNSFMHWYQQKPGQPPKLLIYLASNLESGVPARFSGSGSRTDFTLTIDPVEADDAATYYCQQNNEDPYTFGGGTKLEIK

| binding to Refmab #1 compared to wild type [2] | Molecule | KnockOut Efficiency (loss of binding of SR-1 compared to wild type cells) [1] [%] | also measured |
| --- | --- | --- | --- |
|  | KIT_120_123_5: crRNA CATACAAGGAGCGGTCAACA, SEQ ID NO: 13, targets residues 120-123 of CD117 (chemistry not given here) | 53.8 |  |
|  | KIT_120_123_6: crRNA GCGGTCAACAAGGAAAAGCT, SEQ ID NO: 14, targets residues 120-123 of CD117 (chemistry not given here) | 60.6 |  |
|  | KIT_E73_2: crRNA AAAGTCCATTTGACAAAGCC, SEQ ID NO: 4, targets E73 of CD117 (chemistry not given here) | 25.7 |  |
|  | KIT_120_123_1: crRNA GTTGTCTTCTTTCCCATACA, SEQ ID NO: 9, targets residues 120-123 of CD117 (chemistry not given here) | 64.1 |  |
|  | KIT_E73_5: crRNA ATGAGAATAAGCAGAATGAA, SEQ ID NO: 7, targets E73 of CD117 (chemistry not given here) | 68.5 |  |
|  | KIT_E73_6: crRNA TAAGCAGAATGAATGGATCA, SEQ ID NO: 8, targets E73 of CD117 (chemistry not given here) | 60.5 |  |
|  | KIT_E73_4: crRNA TATTCTCATTCGTTTCATCC, SEQ ID NO: 6, targets E73 of CD117 (chemistry not given here) | 60.1 |  |
|  | KIT_120_123_2: crRNA CTTCTTTCCCATACAAGGAG, SEQ ID NO: 10, targets residues 120-123 of CD117 (chemistry not given here) | 63.1 |  |
|  | KIT_E73_3: crRNA CAAATGGACTTTTGAGATCC, SEQ ID NO: 5, targets E73 of CD117 (chemistry not given here) | 37.2 |  |
|  | KIT_120_123_3: crRNA TTGTTGACCGCTCCTTGTAT, SEQ ID NO: 11, targets residues 120-123 of CD117 (chemistry not given here) | 71.2 |  |
|  | KIT_E73_1: crRNA CTGATCCGGGCTTTGTCAAA, SEQ ID NO: 3, targets E73 of CD117 (chemistry not given here) | 10.8 |  |
| particular strong decrease in binding | S123F: variant of human CD117 with substitution S123F |  | Kd [3]: 1500 nM; change of KD compared to wild type CD117 [3]: around 1,500 fold; EC50 Average ([4]; average of two experiments): 3.82 ± 0.19 ng/mL; EC50 Experiment #1 [4, 6]: 4.01 ng/mL; EC50 Experiment #2 [4, 6]: 3.63 ng/mL |
| particular strong decrease in binding | S123E: variant of human CD117 with substitution S123E (protein) QPSVSPGEPSPPSIHPGKSDLIVRVGDEIRLLCTDPGFVKWTFEILDETNENKQNEWITEKAEATNTGKYTCTNKHGLSNSIYVFVRDPAKLFLVDRELYGKEDNDTLVRCPLTDPEVTNYSLKGCQGKPLPKDLRFIPDPKAGIMIKSVKRAYHRLCLHCSVDQEGKSVLSEKFILKVRPAFKAVPVVSVSKASYLLREGEEFTVTCTIKDVSSSVYSTWKRENSQTKLQEKYNSWHHGDFNYERQATLTISSARVNDSGVFMCYANNTFGSANVTTTLEVVDKG |  | binding of Refmab #1 at 2000 nM variant [3]: do not show any binding |
| particular strong decrease in binding | D121H: variant of human CD117 with substitution D121H (protein) QPSVSPGEPSPPSIHPGKSDLIVRVGDEIRLLCTDPGFVKWTFEILDETNENKQNEWITEKAEATNTGKYTCTNKHGLSNSIYVFVRDPAKLFLVHRSLYGKEDNDTLVRCPLTDPEVTNYSLKGCQGKPLPKDLRFIPDPKAGIMIKSVKRAYHRLCLHCSVDQEGKSVLSEKFILKVRPAFKAVPVVSVSKASYLLREGEEFTVTCTIKDVSSSVYSTWKRENSQTKLQEKYNSWHHGDFNYERQATLTISSARVNDSGVFMCYANNTFGSANVTTTLEVVDKG |  | binding of Refmab #1 at 2000 nM variant [3]: No binding |
|  | E73L: variant of human CD117 with substitution E73L (protein) QPSVSPGEPSPPSIHPGKSDLIVRVGDEIRLLCTDPGFVKWTFEILDLTNENKQNEWITEKAEATNTGKYTCTNKHGLSNSIYVFVRDPAKLFLVDRSLYGKEDNDTLVRCPLTDPEVTNYSLKGCQGKPLPKDLRFIPDPKAGIMIKSVKRAYHRLCLHCSVDQEGKSVLSEKFILKVRPAFKAVPVVSVSKASYLLREGEEFTVTCTIKDVSSSVYSTWKRENSQTKLQEKYNSWHHGDFNYERQATLTISSARVNDSGVFMCYANNTFGSANVTTTLEVVDKG |  | Kd [3]: 485 nM; change of KD compared to wild type CD117 [3]: around 500 fold |
| particular strong decrease in binding | E73R: variant of human CD117 with substitution E73R (protein) QPSVSPGEPSPPSIHPGKSDLIVRVGDEIRLLCTDPGFVKWTFEILDRTNENKQNEWITEKAEATNTGKYTCTNKHGLSNSIYVFVRDPAKLFLVDRSLYGKEDNDTLVRCPLTDPEVTNYSLKGCQGKPLPKDLRFIPDPKAGIMIKSVKRAYHRLCLHCSVDQEGKSVLSEKFILKVRPAFKAVPVVSVSKASYLLREGEEFTVTCTIKDVSSSVYSTWKRENSQTKLQEKYNSWHHGDFNYERQATLTISSARVNDSGVFMCYANNTFGSANVTTTLEVVDKG |  | Kd [3]: 958 nM; change of KD compared to wild type CD117 [3]: around 1000 fold |
| particular strong decrease in binding | R122S (receptor, not in the list MOLECULES; also called human CD117 D1-2-3 variant R122S) extracellular domains 1, 2 and 3: QPSVSPGEPSPPSIHPGKSDLIVRVGDEIRLLCTDPGFVKWTFEILDETNENKQNEWITEKAEATNTGKYTCTNKHGLSNSIYVFVRDPAKLFLVDSSLYGKEDNDTLVRCPLTDPEVTNYSLKGCQGKPLPKDLRFIPDPKAGIMIKSVKRAYHRLCLHCSVDQEGKSVLSEKFILKVRPAFKAVPVVSVSKASYLLREGEEFTVTCTIKDVSSSVYSTWKRENSQTKLQEKYNSWHHGDFNYERQATLTISSARVNDSGVFMCYANNTFGSANVTTTLEVVD |  | binding result [5]: binds |
|  | R122L (receptor, not in the list MOLECULES; also called human CD117 D1-2-3 variant R122L) extracellular domains 1, 2 and 3: QPSVSPGEPSPPSIHPGKSDLIVRVGDEIRLLCTDPGFVKWTFEILDETNENKQNEWITEKAEATNTGKYTCTNKHGLSNSIYVFVRDPAKLFLVDLSLYGKEDNDTLVRCPLTDPEVTNYSLKGCQGKPLPKDLRFIPDPKAGIMIKSVKRAYHRLCLHCSVDQEGKSVLSEKFILKVRPAFKAVPVVSVSKASYLLREGEEFTVTCTIKDVSSSVYSTWKRENSQTKLQEKYNSWHHGDFNYERQATLTISSARVNDSGVFMCYANNTFGSANVTTTLEVVD |  | binding result [5]: binds |
| particular strong decrease in binding | R122E (receptor, not in the list MOLECULES; also called human CD117 D1-2-3 variant R122E) extracellular domains 1, 2 and 3: QPSVSPGEPSPPSIHPGKSDLIVRVGDEIRLLCTDPGFVKWTFEILDETNENKQNEWITEKAEATNTGKYTCTNKHGLSNSIYVFVRDPAKLFLVDESLYGKEDNDTLVRCPLTDPEVTNYSLKGCQGKPLPKDLRFIPDPKAGIMIKSVKRAYHRLCLHCSVDQEGKSVLSEKFILKVRPAFKAVPVVSVSKASYLLREGEEFTVTCTIKDVSSSVYSTWKRENSQTKLQEKYNSWHHGDFNYERQATLTISSARVNDSGVFMCYANNTFGSANVTTTLEVVD |  | binding result [5]: binds |
